Results on four molecules are retold here after patent publication US7052865B1, “Identification of genes having a role in the presentation of diabetic nephropathy” (University College Dublin, National University of Ireland, …, priority 1999, dated 2006).

One experiment relates to gremlin. The experiment in a line: Gremlin mRNA levels in mesangial cells by Northern Blot. Type of experiment: cell-based. Conditions: human recombinant TGF-β1 10 ng/ml, 24 h, serum restricted mesangial cells. The procedure: A) Primary cultures of human mesangial cells were propagated as described in Example 1, except that the medium was supplemented with 5% FBS. Treatment of cultures with glucose was carried out as described in Example 1. […]
Northern Blot analysis as described further below was performed on RNA extracted from mesangial cells grown in either 5 mM (‘normal’) or 30 mM (‘high’) glucose using the ORF of gremlin and IHG-2 probes. Both probes detected a 2-fold increase in gene expression under high glucose conditions as depicted in FIG. 16.
Northern Blots were performed using formaldehyde denaturation according to standard protocols and quantitated using a phosphorimager (Biorad). PCR products used to generate the probes for northern analysis were amplified using primers for the open reading frame (ORF) of gremlin (sense: […] (SEQ ID NO: 17); antisense […] (SEQ ID NO: 18)), and for IHG-2 (sense: […] (SEQ ID NO 19); antisense: […] (SEQ ID NO: 20)). Fibronectin and GAPDH probes were generated as described in Example 2
As indicated above, both high ambient glucose concentrations and cyclic mechanical strain provoke TGF-β1 production by mesangial cells in vitro and TGF-β1 appears to be a major stimulus for mesangial matrix accumulation in diabetic glomeruli in vivo. […]

The test system of a further experiment is CTGF. The experiment can be described thus: CTGF mRNA levels in mesangial cells by Northern Blot, Phosphor Imager quantification. Type of experiment: cell-based, human. The source says:
CTGF, is a 38 kD cysteine-rich secreted peptide known to modulate ECM production in some extrarenal cell types. In Example 1, SSH analysis identified a cDNA fragment of 250 bp which was identical to bases 814-1061 of the human CTGF cDNA. Induction of CTGF mRNA expression in primary human mesangial cells cultured in high glucose was investigated by Northern Blotting as shown in FIG. 1.
A 2.4 kb band was detected following hybridisation with the CTGF probe. All of the values were normalised to GAPDH levels and the results are representative of three independent experiments.
To assess the role of TGF-β1 as a stimulus for CTGF expression in response to high glucose, cells were incubated in either 5 mM glucose or 30 mM glucose plus 1 μl/ml anti-TGF-β1 antibody for seven days with three changes of medium. Cells were serum starved for 24 hr in RPMI 1640 and 0.5% FBS. 10 ng/ml TGF-β1 Calbiochem) or 10 ng/ml TGF-β1 preadsorbed with 1 μg/ml neutralising anti-TGF-β1 polyclonal antibody were subsequently added for 24 hr.
The role of PKC on CTGF expression in response to high glucose was investigated by culturing the mesangial cells in either 5 mM, 30 mM glucose or 30 mM glucose and the PKC inhibitor GF 102903X.
FIG. 7 is an autoradiograph of CTGF mRNA levels analysed by Northern Blot and depicts the results obtained when mesangial cells were exposed to TGF-β1 (10 ng/ml) for 24 hr in the presence (lane 3) and absence (lane 2) of anti-TGF-β1 neutralising antibody (1 μg/ml). Cells cultured in RPMI 1640 and 0.5% FBS for 24 hr served as control (lane 1). A 2.4 kb band was detected following hybridisation to the CTGF probe. The blot was stripped and reprobed with GAPDH. The relative amount of CTGF mRNA as estimated by Phosphor Imager quantification (FIG. 8). Values were normalised to GAPDH levels and the results are representative of two independent experiments.
FIG. 9 is an autoradiograph of CTGF mRNA levels analysed by Northern Blot and depicts the results obtained when mesangial cells were exposed to 5 mM glucose (lane 1), 30 mM glucose (lane 2) and 30 mM glucose in the presence of anti-TGF-β1 neutralising antibodies (1 μg/ml) (lane 3) for seven days. A 2.4 kb band was detected following hybridisation to the CTGF probe. The blot was stripped and probed with GAPDH. The relative amount of CTGF MRNA as estimated by Phosphor Imager quantification (FIG. 10). […]
FIG. 11 is an autoradiograph of CTGF mRNA levels analysed by Northern Blot and depicts the results obtained when mesangial cells were exposed to 5 mM glucose (lane 1), 30 mM glucose (lane 2) and 30 mM glucose in PKC inhibitor GF102903X (10 μM) (lane 3) for four days. A 2.4 kb band was detected following hybridisation to the CTGF probe. […] The relative amount of CTGF rnRNA as estimated by Phosphor Imager quantification (FIG. 12). […]

The subject of experiment [1] is primary human mesangial cells. The experiment can be described thus: Northern Blot of genes differentially induced in mesangial cells cultured in high glucose or mannitol (Table 1). Type of experiment: cell-based. Also noted: key to Differential Expression of IHG-1 mRNA: *: detected in mesangial cells cultured in 5 mM glucose+25 mM mannitol and 30 mM glucose, but not in 5 mM glucose. Conditions: 25 mM mannitol + 5 mM glucose, relative to 5 mM glucose. The procedure: Primary human mesangial cells were cultured as previously reported (Brady, H. R., et al. (1992) Kidney Int. 42, 480-487 and Denton, M. D., et al. (1991) Am. J. Physiol. 261, F1071-F1079). Cells (passage 7-11) were maintained in medium (Clonetics) containing either 5 mM or 30 mM D-glucose for 7 days. Culture medium was replenished three times during this period to maintain glucose levels in the desired range. To control for the effects of hyperosmolarity, mesangial cells were cultured in media containing 5 mM glucose supplemented with 25 mM mannitol. […] Northern Blots performed using formaldehyde denaturation according to standard protocols and quantitated using a Phosphor Imager (Biorad) confirmed differential expression of fifteen of the sixteen subcloned fragments as indicated in Table 1. ^c refers to the differential expression of each gene based on Northern Blot analysis of primary human mesangial cells cultured under indicated conditions relative to expression in cells cultured in 5 mM glucose. Values were obtained by Phosphor-Imaging and were normalised by comparison with glyceraldehyde-3-phosphate dehydrogenase (GAPDH) (*, detected in mesangial cells cultured in 5 mM glucose+25 mM mannitol and 30 mM glucose, but not in 5 mM glucose, fold expression is degree of expression relative to that found in 5 mM glucose). Within a diabetic milieu, high glucose levels may perturb cellular function through glucose-specific actions or by increasing the osmolarity of extracellular fluids. The role of hyperosmolarity as a mediator of gene induction by high glucose was assessed by comparing mRNA levels, as determined by Northern Blot, in cells cultured in either 30 mM glucose or in 5 mM glucose supplemented with 25 mM mannitol. […] High glucose and mannitol-induced hyperosmolarity afforded equivalent induction of the other products.

For another experiment, the system named is mesangial cells. The experiment in a line: Effect of rhCTGF on mesangial cell matrix production (RT-PCR). It is filed as cell-based, human. Conditions: rhCTGF 8 ng/ml, 24 hr, serum starved mesangial cells. The method, then: To investigate the direct effects of CTGF up-regulation on matrix production, in particular the effect on collagens I and IV and fibronectin, mesangial cells were incubated with recombinant CTGF protein.
Mesangial cells were serum starved for 24 hr in RPMI 1640 medium supplemented with 0.5 % fetal bovine serum (FBS) and then exposed to rhCTGF (8 ng/ml) (a generous gift from Dr. Gary Grotendorst) for 24 hr (Kreisberg, J. I. and Ayo, S. H. (1993). Kidney Int. 43, 109-113). Total RNA was extracted and chromosomal DNA was removed using DNase 1 (Gibco-BRL). Equal amounts of cDNA were subsequently amplified by PCR using specific primers for GAPDH (Gen/EMBL accession no. AJ005371, sense: […] (SEQ ID NO: 7); antisense: […] (SEQ ID NO: 8), Collagen I (Gen/EMBL accession no. X55525, sense: […] (SEQ ID NO: 9); antisense: […] (SEQ ID NO: 10)), Collagen IV (Gen/EMBL accession no. M11315, sense: […] (SEQ ID NO: 11); antisense: […] (SEQ ID NO: 12) and fibronectin (Gen/EMBL accession no. X0276 1, sense: CGAAATCACAGCCAGTAG (SEQ ID NO. 13), antisense: ATCACATCCACACGGTAG (SEQ ID NO: 14)).
FIG. 3 depicts ethidium-stained panels of a 2% (w/v) agarose gel containing 10 μl of each PCR reaction after electrophoresis.

“TGF-β1: human recombinant transforming growth factor β1 (Calbiochem)”: the “gremlin mRNA levels” value in the experiment on gremlin is given as “augmented”. Moreover, the “induction of CTGF mRNA levels” value in the experiment with CTGF (TGF-β1 10 ng/ml, 24 hr, serum starved mesangial cells) was “potent inducer”.

Turning to `OC[C@@H](O)[C@@H](O)[C@H](O)[C@H](O)CO` [mannitol], in experiment [1], the “Differential Expression of IHG-1 mRNA” value was “*”. In addition, in experiment [1] (normalised to GAPDH), the “Differential Expression of ARP3 mRNA” value was 1.0-fold, the “Differential Expression of CAP mRNA” value is 1.7-fold, the “Differential Expression of CTGF mRNA” value is on record as 1.5-fold and the “Differential Expression of Caldesmon mRNA” value was 2.8-fold. Also, in experiment [1] (normalised to GAPDH), the “Differential Expression of Fibronectin mRNA” value was 1.5-fold, the “Differential Expression of IHG-2 mRNA” value is 2.0-fold, the “Differential Expression of MRLC mRNA” value is 1.6-fold and the “Differential Expression of PAI-1 mRNA (2.0 kb)” value is 1.0-fold. Besides, in experiment [1] (normalised to GAPDH), the “Differential Expression of PAI-1 mRNA (3.0 kb)” value was 2.0-fold, the “Differential Expression of Profilin mRNA” value is reported as 2.3-fold, the “Differential Expression of RBM3 mRNA” value is listed as 1.4-fold and the “Differential Expression of T-plastin mRNA” value is 1.8-fold. Also, in experiment [1] (normalised to GAPDH), the “Differential Expression of TCTP mRNA” value was 2.5-fold, the “Differential Expression of Thrombospondin mRNA” value is recorded as 8.0-fold and the “Differential Expression of Ubiquitin mRNA” value is recorded as 1.7-fold. In addition, the “mesangial cell CTGF expression compared with high glucose” value with CTGF (25 mM mannitol + 5 mM glucose versus 30 mM glucose, in vitro) is on record as “less mesangial cell CTGF expression in vitro than high glucose”.

For the molecule `CN(C)CCCn1cc(C2=C(c3c[nH]c4ccccc34)C(=O)NC2=O)c2ccccc21` [GF102903X], in the experiment on CTGF (30 mM glucose, four days, inhibitor 10 μM), the “effect on high glucose-induced CTGF expression” value is “partial inhibition”. For the same molecule, the “effect on TGF-β1-induced CTGF expression” value in the experiment on CTGF (TGF-β1 10 ng/ml, 24 hr, antibody 1 μg/ml, GF102903X data not shown) is on record as “without effect”.

B1: rhCTGF: recombinant human connective tissue growth factor protein (protein, UniProt P29279 27-349, looked up)
CCN family member 2: QNCSGPCRCPDEPAPRCPAGVSLVLDGCGCCRVCAKQLGELCTERDPCDPHKGLFCHFGSPANRKIGVCTAKDGAPCIFGGTVYRSGESFQSSCKYQCTCLDGAVGCMPLCSMDVRLPSPDCPFPRRVKLPGKCCEEWVCDEPKDQTVVGPALAAYRLEDTFGPDPTMIRANCLVQTTEWSACSKTCGMGISTRVTNDNASCRLEKQSRLCMVRPCEADLEENIKKGKKCIRTPKISKPIKFELSGCTSMKTYRAKFCGVCTDGRCCTPHRTTTLPVEFKCPDGEVMKKNMMFIKTCACHYNCPGDNDIFESLYYRKMYGDMA
For the molecule B1, the “mesangial cell collagens I and IV and fibronectin mRNA (RT-PCR)” value in the experiment with mesangial cells is “up-regulates”.
